Measured values reported in publication PMC11861906, “Structural basis for lipid-mediated activation of G protein-coupled receptor GPR55” (Nature Communications, 2025).

Target: GPR55 mutant G152F (Gα13) (Homo sapiens, UniProt Q9Y2T6, G152F)
Assay: BRET² G protein dissociation assay, GPR55 G152F with Gα13
Assay type: cell-based
Text: To validate the functionality of the GPR55 cryo-EM construct, we conducted bioluminescence resonance energy transfer 2 (BRET²)-based G protein dissociation assays[46],[47] using an engineered heterotrimeric G13 protein. The N-terminal GFP fusion of the receptor was additionally modified with a G67A mutation to disrupt fluorescence properties. We employed human embryonic kidney (HEK) cells overexpressing wt or mutant GPR55 together with Gβ3, Gγ9-GFP, and Gα13 tagged with Renilla luciferase 8 (Rluc8).
G protein dissociation assays were performed according to the original protocols of the TRUPATH BRET² assay[47],[87] but with subtle modifications as previously described[61],[88],[89]. All reagents and cells were obtained from Thermo Fisher Scientific unless indicated otherwise. The coding sequences for the G protein biosensors[47] (Gα12-Rluc8, Gα13-Rluc8, wt Gβ3, and Gγ9-GFP), the wt GPR55, the construct used for cryo-EM (with GFP bearing a G67A mutation to disrupt fluorescence properties[48] for BRET² assays), GPR55 binding pocket mutants (G152^4.56F, G152^4.56W, N171^ECL2Q, N171^ECL2A, T176^5.33A, R253^6.62A), and the wt TBXA2R were codon-optimized for Homo sapiens, gene-synthesized, and sub-cloned into pcDNA^TM3.1(+) between NheI and HindIII restriction sites by GeneArt (Thermo Fisher Scientific). […] Freshly grown cells were washed with Dulbecco’s Balanced Salt Solution (DPBS, cat. #14200075) and detached using trypsin-ethylenediaminetetraacetic acid (trypsin-EDTA) (cat. #25300-062). Then, the cells were reconstituted to 500,000 cells per mL with fresh medium, and 1,000,000 cells were seeded into each well of a 6-well plate. After 3 h incubation at 37 °C and 5% CO2, adherent cells were transfected with 600 ng DNA (1:1:1:1 ratio of plasmid DNA for GPR55, wt Gβ3, Gγ9-GFP, and Gα12-Rluc8 or Gα13-Rluc8). Plasmid DNA was mixed with 1.5 µL Lipofectamine^TM 2000 (cat. #11668027) in Opti-MEM^TM medium (cat. #31985062) and incubated for 20 min. Then, the mixture was added to each well of the 6-well plate following 24 h incubation at 37 °C and 5% CO2. Transfected cells were washed with DPBS, detached using EDTA (Versene, cat. #15040066), and reconstituted into fresh medium at 500,000 cells mL^−1. From this suspension, 50,000 cells were seeded into each well of a white-bottom 96-well plate (Nunc^TM MicroWell^TM 96 wells, cat. #136101) following overnight incubation at 37 °C and 5% CO2. Then, the adherent cells were washed with assay medium [Hank’s balanced salt solution (HBSS, cat. #14065056) plus 20 mM HEPES pH 7.4 (cat. #15630056)] and finally reconstituted into 50 µL of the same medium. […] Methoxy e-Coelenterazine was used as luciferase substrate (Prolume Purple, NanoLight Technology, cat. #369), reconstituted at 1 mM in methanol and diluted to 37.5 µM with assay buffer (7.5 µM final assay concentration). The assay was started by the addition of 20 µL luciferase substrate to each well of the assay plate using a Multidrop^TM Combi reagent dispenser (Thermo Fisher Scientific), followed by 5 min incubation at room temperature. Then, 30 µL of agonist dilutions or DMSO control was added (final DMSO concentration 1.5%), followed by an additional 5 min incubation at room temperature. BRET² measurements were performed with a PHERAstar® FSX microplate reader (BMG LABTECH) using a BRET² filter (donor emission 370–450 nm, acceptor emission 500–530 nm) at the maximum fluorescence gain of 3600. BRET² ratios were calculated by dividing GFP emission signals from Rluc8 emission counts. Buffer-DMSO controls were subtracted from each data point to calculate ΔBRET² ratios.

Sequence of GPR55 mutant G152F (Gα13) (Q9Y2T6 whole entry G152F): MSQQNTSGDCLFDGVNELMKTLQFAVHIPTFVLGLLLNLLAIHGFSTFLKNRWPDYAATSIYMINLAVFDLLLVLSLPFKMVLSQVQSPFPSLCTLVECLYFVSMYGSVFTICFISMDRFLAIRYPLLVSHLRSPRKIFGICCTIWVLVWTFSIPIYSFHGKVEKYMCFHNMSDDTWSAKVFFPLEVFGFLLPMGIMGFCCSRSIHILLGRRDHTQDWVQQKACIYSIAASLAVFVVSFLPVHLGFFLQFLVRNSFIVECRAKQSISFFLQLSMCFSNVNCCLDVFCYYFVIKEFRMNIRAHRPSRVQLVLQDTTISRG
Sequence of GPR55 mutant G152F (Gα13) (Q14344 whole entry partner): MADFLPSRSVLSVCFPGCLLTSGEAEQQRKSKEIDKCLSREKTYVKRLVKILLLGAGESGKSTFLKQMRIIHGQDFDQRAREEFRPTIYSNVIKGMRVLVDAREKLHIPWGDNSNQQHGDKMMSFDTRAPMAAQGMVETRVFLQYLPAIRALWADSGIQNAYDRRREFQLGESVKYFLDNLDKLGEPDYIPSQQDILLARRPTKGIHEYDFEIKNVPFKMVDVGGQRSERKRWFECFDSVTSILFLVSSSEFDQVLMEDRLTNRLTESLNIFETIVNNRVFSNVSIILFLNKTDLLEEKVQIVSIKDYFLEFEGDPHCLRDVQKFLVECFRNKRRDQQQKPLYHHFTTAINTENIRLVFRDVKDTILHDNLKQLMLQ
Sequence of GPR55 mutant G152F (Gα13) (P16520 whole entry partner): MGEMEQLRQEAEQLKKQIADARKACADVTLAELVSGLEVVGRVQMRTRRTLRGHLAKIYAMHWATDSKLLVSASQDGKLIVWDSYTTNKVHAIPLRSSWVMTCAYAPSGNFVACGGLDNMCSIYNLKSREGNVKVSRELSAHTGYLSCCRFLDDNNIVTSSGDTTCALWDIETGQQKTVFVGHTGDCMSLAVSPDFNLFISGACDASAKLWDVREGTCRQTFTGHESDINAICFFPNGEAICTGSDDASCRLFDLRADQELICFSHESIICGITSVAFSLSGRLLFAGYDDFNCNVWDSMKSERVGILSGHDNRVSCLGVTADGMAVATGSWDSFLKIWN
Sequence of GPR55 mutant G152F (Gα13) (O14610 1-66 partner limits assumed): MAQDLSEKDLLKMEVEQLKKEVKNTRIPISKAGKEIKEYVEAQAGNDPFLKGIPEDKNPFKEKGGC

SMILES	Mean (plotted) BRET² response, GPR55-G152F-G13 (Concentration 300 pM)	Mean (plotted) BRET² response, GPR55-G152F-G13 (Concentration 1e-9 M)	Mean (plotted) BRET² response, GPR55-G152F-G13 (Concentration 3e-9 M)	Mean (plotted) BRET² response, GPR55-G152F-G13 (Concentration 1e-8 M)	Mean (plotted) BRET² response, GPR55-G152F-G13 (Concentration 3e-8 M)	Mean (plotted) BRET² response, GPR55-G152F-G13 (Concentration 1e-7 M)	Mean (plotted) BRET² response, GPR55-G152F-G13 (Concentration 3e-7 M)	Mean (plotted) BRET² response, GPR55-G152F-G13 (Concentration 1e-6 M)	Mean (plotted) BRET² response, GPR55-G152F-G13 (Concentration 3e-6 M)	Mean (plotted) BRET² response, GPR55-G152F-G13 (Concentration 1e-5 M)	Mean (plotted) BRET² response, GPR55-G152F-G13 (Concentration 3e-5 M)	reduction of potency compared to wt GPR55 (G152F mutant)	EC50 (GPR55 G152F, Gα13)	Emax at 30 µM (GPR55 G152F, Gα13, 30 µM ligand, same normalization, read-out: Efficacy ± SEM (%))	Mean (plotted) BRET² response, GPR55-G152F-G13 (Concentration 10 pM)	Mean (plotted) BRET² response, GPR55-G152F-G13 (Concentration 30 pM)	Mean (plotted) BRET² response, GPR55-G152F-G13 (Concentration 100 pM)
Cc1cccc(N2CCN(C(=O)c3cc(S(=O)(=O)N(C)C)ccc3N3CCCC3)CC2)c1C [ML184, 3-[[4-(2,3-dimethylphenyl)-1-piperazinyl]carbonyl]-N,N-dimethyl-4-(1-pyrrolidinyl)benzenesulfonamide]	-0.004043	-0.005951	-0.01719	-0.03259	-0.04406	-0.05628	-0.06251	-0.06831	-0.07057	-0.07761	-0.07919	remained unchanged	21.9 nM	108 ± 3%	–	–	–
CCCCC[C@H](O)/C=C/[C@@H]1[C@@H](C/C=C\CCCC(=O)O)[C@H]2CO[C@@H]1C2 [U-46619]	-0.003135	0.0004643	-0.004129	-0.009075	-0.001052	-0.0003089	-0.001149	-0.0006267	-0.009104	-0.008346	-0.007499	–	–	–	-0.003	0.00205	0.0008
